Article PMC7037862, “Tricyclic Nucleobase Analogs and Their Ribosides as Substrates and Inhibitors of Purine-Nucleoside Phosphorylases III. Aminopurine Derivatives” (Molecules, 2020)

Columns and labels:
[1] = Ionization constants (pKa), determined spectrophotometrically; format: physicochemical; conditions: phosphate and/or acetate buffers, protonation, read-out: pKa (protonation)
Experimental: Fluorescence spectra were measured on a Varian Eclipse instrument (Varian Corp., Palo Alto, CA, USA), and UV absorption kinetic experiments were performed on a Cary 5000 (Varian Corp., Palo Alto, CA, USA) thermostated spectrophotometer. Fluorescence yields were determined relative to tryptophan (0.15) or 1,N^6-ethenoadenosine in water (0.56, see ref. [2]). Emission spectra were measured in semi-micro cuvettes, pathlength 4 mm, to diminish the inner-filter effect. Typical spectral resolution was 2.5 nm. The ionization constants (pKa values) were determined spectrophotometrically using 20–50 mM phosphate and/or acetate buffers.

E. coli PNP [2] = target: T1, E. coli PNP (Escherichia coli, UniProt P0ABP8); experiment: Fluorescence titration of E. coli PNP with ligand (enzyme-ligand complexes); format: binding; conditions: 40 mM phosphate buffer, pH 7, 20 °C; protein 11 μM per subunit
T1 construct: made in house; host or cells: E. coli
T1 sequence (P0ABP8 2-239): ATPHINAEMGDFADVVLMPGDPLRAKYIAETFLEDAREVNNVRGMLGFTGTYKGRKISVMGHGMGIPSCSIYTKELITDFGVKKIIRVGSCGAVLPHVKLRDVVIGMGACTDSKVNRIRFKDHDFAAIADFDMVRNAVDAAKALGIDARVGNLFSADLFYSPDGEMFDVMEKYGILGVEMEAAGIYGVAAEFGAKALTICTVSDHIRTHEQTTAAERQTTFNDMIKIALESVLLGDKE
Experimental: Additionally, the fluorescence excitation spectra reveal fluorescence energy transfer (FRET) from the protein to the complexed ligand, since they show marked enhancement in the region 270–280 nm, where the tyrosine residues of the PNP molecule absorb (Figure 10).
Figure 10 Changes in fluorescence excitation (a) and emission spectra (b), observed during the titration of E. coli PNP with N^2,3-etheno-2-aminopurine (2). […] Spectra of the free ligand (3.5 μM) are given for comparison (points). Excitation spectrum of the protein, monitored at 310 nm, is given in black. Conditions: 40 mM phosphate, pH 7, at 20 °C. Concentration of protein was 10.1 μM (per subunit); that of the titrant was 0 to 3.5 μM. Lower panels: Fluorescence difference spectra, calculated from data presented on panels (a) and (b), (c) difference excitation (observed at 380 nm), (d) difference emission spectra, excited at 275 nm. Substrate concentrations are 0.17, 0.69, 1.37, 2.36 and 3.31 μM.
Etheno-tubercidine (6) forms somewhat similar fluorescent complexes with the E. coli PNP. As shown below, FRET from the protein to the ligand is evident in the excitation spectra (Figure 11), and the ligand fluorescence blue shifted from 415 to ca. 390 nm (Figure 11b,c). In this case more than 60% of protein fluorescence is quenched when protein binding sites are saturated (cf. Figure 11). […]

calf PNP = target: T2, calf PNP (Bos taurus, UniProt P55859); experiment: Inhibition of calf PNP; format: biochemical; conditions: concentrations up to 50 μM
T2 construct: made in house; host or cells: E. coli
T2 sequence (P55859 1-289): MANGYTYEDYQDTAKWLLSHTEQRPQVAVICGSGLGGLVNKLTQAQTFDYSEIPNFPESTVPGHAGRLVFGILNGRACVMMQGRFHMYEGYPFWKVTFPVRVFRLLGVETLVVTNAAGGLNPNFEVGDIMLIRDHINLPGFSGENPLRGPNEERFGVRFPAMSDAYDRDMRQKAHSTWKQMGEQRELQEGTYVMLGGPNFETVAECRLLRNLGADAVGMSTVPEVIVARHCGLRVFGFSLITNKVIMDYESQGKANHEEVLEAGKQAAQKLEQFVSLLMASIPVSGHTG
Experimental: (§1) Etheno-tubercidine (6) is therefore a good candidate to observe enzyme-ligand complexes by spectral methods, as shown below. No inhibition of the calf PNP was observed, at least in moderate concentrations (up to 50 μM) that we used.
(§2) Enzymatic ribosylation reactions were carried out in 1 mL cuvettes (pathlength 4 mm) in ~50 mM HEPES buffer, pH 7.3, using 0.5 mM R1P as a ribose source. Reactions were followed fluorimetrically (see Section 2.4). On a larger scale (2–4 mg), the reactions were run in Eppendorf tubes, volume 2–3 mL, using either R1P (3–10 mM) or 7-methylguanosine as ribose sources. Products were purified by semi-preparative HPLC, concentrated and the final solutions kept frozen. Their structure has been confirmed by NMR (see Section 2.4 and Supplementary Materials) and by MS: comp. 3: m/z = 292.10385, comp. 4: m/z = 292.10400, comp. 5: m/z = 292.10398, calculated for C12H13N5O4 + H: 292.10403. Phosphorolysis reactions were run in 40–50 mM phosphate buffer, pH 7.0 or 6.5, and followed spectrally or fluorimetrically. Kinetic parameters were calculated by standard methods.

E. coli PNP [3] = target: T1, E. coli PNP; experiment: Inhibition of phosphorolysis of purine nucleosides catalyzed by E. coli PNP; format: biochemical; conditions: competitive inhibition of phosphorolysis of purine nucleosides; read-out: inhibition constant, Ki
Experimental: as §1, §2

## OC[C@H]1O[C@@H](n2ccc3c2ncn2ccnc32)[C@H](O)[C@@H]1O [Compound 6, 1,N^6-etheno-tubercidine]
[1]
  pKa: 5.2
E. coli PNP [2]
  protein fluorescence quenched at saturation of binding sites: more than 60%
Calf PNP
  inhibition of the calf PNP: No inhibition
E. coli PNP [3]
  Ki: ~4.5 µM
